{"source": "patent US20220356170A1", "about": "“SREBP INHIBITOR COMPRISING A THIOPHENE CENTRAL RING” (Capulus Therapeutics, LLC, priority 2019, published 2022)", "experiment_in_all_cases": "Cancer cell growth inhibition, Sulforhodamine B", "type_in_all_cases": "cell-based", "key": {"[1]": {"test_system": "22RV1", "conditions": "Homo sapiens; 22RV1 (prostate), 72 hr; Responder Cell Lines", "description": "(§1) The ability of select compounds to inhibit cell growth in various cancer cell lines are evaluated. […] The cell lines shown in Table 5 have reduced growth by at least 50% at 10 uM or lower over 72 hr treatment in growth media. The cell lines shown in Table 6 have reduced growth by at least 50% with an IC50 greater than 10 uM.\n(§2) Six 10-fold compound dilutions are prepared in DMSO (e.g. 10 mM, 1 mM, 100 uM, 10 uM, 1 uM, and 0.1 uM). Single data points are acquired for each concentration. The final concentration of DMSO is 0.1%. The duration of the treatment is 72 hr. Growth inhibition is measured using Sulforhodamine B in a protein staining assay. Activity of the agents is determined by evaluation the following parameters: IC50, GI50, IC10, TGI, LC50, IC90, and GI90 (where these values can be calculated)."}, "[2]": {"test_system": "A2780", "conditions": "Homo sapiens; A2780 (ovary), 72 hr; Responder Cell Lines", "description": "as §1, §2"}, "[3]": {"test_system": "CACO2", "conditions": "Homo sapiens, Caco-2; CACO2 (colon), 72 hr; Responder Cell Lines", "description": "as §1, §2"}, "[4]": {"test_system": "CALU6", "conditions": "Homo sapiens, Calu-6; CALU6 (lung), 72 hr; Non-Responder Cell Lines with IC50 >10 uM or Not Determined", "description": "as §1, §2"}, "[5]": {"test_system": "COLO205", "conditions": "Homo sapiens, COLO 205; COLO205 (colon), 72 hr; Responder Cell Lines", "description": "as §1, §2"}, "[6]": {"test_system": "HCT116", "conditions": "Homo sapiens, HCT-116; HCT116 (colon), 72 hr; Responder Cell Lines", "description": "as §1, §2"}, "[7]": {"test_system": "HEK293", "conditions": "Homo sapiens; HEK293 (kidney), 72 hr; Responder Cell Lines", "description": "as §1, §2"}, "[8]": {"test_system": "HT1080", "conditions": "Homo sapiens, HT-1080; HT1080 (connective tissue), 72 hr; Responder Cell Lines", "description": "as §1, §2"}, "[9]": {"test_system": "KASUMI-1", "conditions": "Homo sapiens; KASUMI-1 (hematological), 72 hr; Non-Responder Cell Lines with IC50 >10 uM or Not Determined", "description": "as §1, §2"}, "[10]": {"test_system": "MCF7", "conditions": "Homo sapiens; MCF7 (breast), 72 hr; Responder Cell Lines", "description": "as §1, §2"}, "[11]": {"test_system": "MDAMB468", "conditions": "Homo sapiens, MDA-MB-468, 72 h, MDAMB468 (breast)", "description": "as §1, §2"}, "[12]": {"test_system": "MG63", "conditions": "Homo sapiens, MG-63; MG63 (bone), 72 hr; Non-Responder Cell Lines with IC50 >10 uM or Not Determined", "description": "as §1, §2"}, "[13]": {"test_system": "MHHES1", "conditions": "Homo sapiens, MHH-ES-1, 72 h", "description": "as §1, §2"}, "[14]": {"test_system": "PBMC", "conditions": "PBMC (hematological), 72 hr; Non-Responder Cell Lines with IC50 >10 uM or Not Determined", "description": "as §1, §2"}, "[15]": {"test_system": "SAOS2", "conditions": "Homo sapiens, SAOS-2; SAOS2 (bone), 72 hr; Non-Responder Cell Lines with IC50 >10 uM or Not Determined", "description": "as §1, §2"}, "[16]": {"test_system": "SKHEP1", "conditions": "Homo sapiens, SK-HEP1, 72 h, SKHEP1 (liver)", "description": "as §1, §2"}, "[17]": {"test_system": "SKOV3", "conditions": "Homo sapiens, SK-OV-3; SKOV3 (ovary), 72 hr; Non-Responder Cell Lines with IC50 >10 uM or Not Determined", "description": "as §1, §2"}, "[18]": {"test_system": "SU-DHL-10", "conditions": "Homo sapiens, SU-DHL10; SU-DHL-10 (hematological), 72 hr; Non-Responder Cell Lines with IC50 >10 uM or Not Determined", "description": "as §1, §2"}, "[19]": {"test_system": "SU-DHL-6", "conditions": "Homo sapiens, SU-DHL-6, 72 h, SU-DHL-6 (hematological)", "description": "as §1, §2"}, "[20]": {"test_system": "SW620", "conditions": "Homo sapiens, SW-620; SW620 (colon), 72 hr; Non-Responder Cell Lines with IC50 >10 uM or Not Determined", "description": "as §1, §2"}, "[21]": {"test_system": "U2OS", "conditions": "Homo sapiens; U2OS (bone), 72 hr; Non-Responder Cell Lines with IC50 >10 uM or Not Determined", "description": "as §1, §2"}, "[22]": {"test_system": "U87MG", "conditions": "Homo sapiens, U-87 MG; U87MG (brain), 72 hr; Non-Responder Cell Lines with IC50 >10 uM or Not Determined", "description": "as §1, §2"}, "[23]": {"test_system": "UO31", "conditions": "Homo sapiens, UO-31; UO31 (kidney), 72 hr; Non-Responder Cell Lines with IC50 >10 uM or Not Determined", "description": "as §1, §2"}, "[24]": {"test_system": "WSU-NHL", "conditions": "Homo sapiens, 72 h, WSU-NHL (hematological)", "description": "as §1, §2"}, "[25]": {"conditions": "Non-Responder Cell Lines with IC50 >10 uM or Not Determined"}}}
{"smiles": "CC(C)(O)c1cc(-c2csc(-c3ccc(C(=O)N4CCC(O)CC4)cc3Cl)c2)ccn1", "note": "[Compound 1, (3-chloro-4-(4-(2-(2-hydroxypropan-2-yl)pyridin-4-yl)thiophen-2-yl)phenyl)(4-hydroxypiperidin-1-yl)methanone]", "values": [{"measurement": "IC50", "setting": "[1]", "value": "< 10", "unit": "µM"}, {"measurement": "IC50", "setting": "[2]", "value": "< 10", "unit": "µM"}, {"measurement": "IC50", "setting": "[3]", "value": "< 10", "unit": "µM"}, {"measurement": "IC50", "setting": "[4]", "value": "> 10", "unit": "µM"}, {"measurement": "IC50", "setting": "[5]", "value": "< 10", "unit": "µM"}, {"measurement": "IC50", "setting": "[6]", "value": "< 10", "unit": "µM"}, {"measurement": "IC50", "setting": "[7]", "value": "< 10", "unit": "µM"}, {"measurement": "IC50", "setting": "[8]", "value": "< 10", "unit": "µM"}, {"measurement": "IC50", "setting": "[9]", "value": "> 10", "unit": "µM"}, {"measurement": "IC50", "setting": "[10]", "value": "< 10", "unit": "µM"}, {"measurement": "IC50", "setting": "[11]; [25]", "value": "> 10", "unit": "µM"}, {"measurement": "IC50", "setting": "[11]; Responder Cell Lines", "value": "< 10", "unit": "µM"}, {"measurement": "IC50", "setting": "[12]", "value": "> 10", "unit": "µM"}, {"measurement": "IC50", "setting": "[13]; MHHES1 (bone), Non-Responder Cell Lines with IC50 >10 uM or Not Determined", "value": "> 10", "unit": "µM"}, {"measurement": "IC50", "setting": "[13]; MHHESI (bone), Responder Cell Lines", "value": "< 10", "unit": "µM"}, {"measurement": "IC50", "setting": "[14]", "value": "> 10", "unit": "µM"}, {"measurement": "IC50", "setting": "[15]", "value": "> 10", "unit": "µM"}, {"measurement": "IC50", "setting": "[16]; [25]", "value": "> 10", "unit": "µM"}, {"measurement": "IC50", "setting": "[16]; Responder Cell Lines", "value": "< 10", "unit": "µM"}, {"measurement": "IC50", "setting": "[17]", "value": "> 10", "unit": "µM"}, {"measurement": "IC50", "setting": "[18]", "value": "> 10", "unit": "µM"}, {"measurement": "IC50", "setting": "[19]; [25]", "value": "> 10", "unit": "µM"}, {"measurement": "IC50", "setting": "[19]; Responder Cell Lines", "value": "< 10", "unit": "µM"}, {"measurement": "IC50", "setting": "[20]", "value": "> 10", "unit": "µM"}, {"measurement": "IC50", "setting": "[21]", "value": "> 10", "unit": "µM"}, {"measurement": "IC50", "setting": "[22]", "value": "> 10", "unit": "µM"}, {"measurement": "IC50", "setting": "[23]", "value": "> 10", "unit": "µM"}, {"measurement": "IC50", "setting": "[24]; [25]", "value": "> 10", "unit": "µM"}, {"measurement": "IC50", "setting": "[24]; Responder Cell Lines", "value": "< 10", "unit": "µM"}]}
